Publication PMC7413254 (Nature Communications, 2020)
Where two headings read alike, the source gives them in different places.

Tests used:
PfCRT [1] = assay: Potential co-substrates tested for influx of VF-6 via PfCRT into the oocyte; assay type: cell-based, Plasmodium falciparum; parameters: key: X: Compounds that have been tested as potential co-substrates but are not required for influx of VF-6 via PfCRT into the oocyte
PfCRT^Dd2 [2] = target: T1, PfCRT^Dd2 (Plasmodium falciparum, UniProt Q9N623, A220S/I356T/K76T/M74I/N326S/N75E/Q271E/R371I); assay: [3H]CQ uptake into Xenopus oocytes, cis-inhibition by unlabelled solute; assay type: cell-based
T1 sequence (Q9N623 whole entry A220S/I356T/K76T/M74I/N326S/N75E/Q271E/R371I): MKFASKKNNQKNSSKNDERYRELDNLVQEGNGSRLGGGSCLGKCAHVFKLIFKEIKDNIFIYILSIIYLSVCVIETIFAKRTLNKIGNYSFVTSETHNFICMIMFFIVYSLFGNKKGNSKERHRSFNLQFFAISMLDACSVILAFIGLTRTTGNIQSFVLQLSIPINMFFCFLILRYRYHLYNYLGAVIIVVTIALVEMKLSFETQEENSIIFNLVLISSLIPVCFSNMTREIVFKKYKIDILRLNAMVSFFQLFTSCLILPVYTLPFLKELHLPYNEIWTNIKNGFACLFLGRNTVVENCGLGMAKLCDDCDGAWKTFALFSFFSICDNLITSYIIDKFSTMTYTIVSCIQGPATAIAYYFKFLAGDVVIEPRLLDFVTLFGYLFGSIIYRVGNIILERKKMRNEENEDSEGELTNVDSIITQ
How it was run: (§1)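 Radioactivity accumulated per oocyte, read by liquid scintillation after 10% SDS lysis, served as the uptake measure. Incubations ran 1.5 h at 27.5 °C in ND96 at pH 5.5, matching digestive-vacuole acidity.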

PfCRT^Ecu1110 [3] = target: T2, PfCRT^Ecu1110 (Plasmodium falciparum, UniProt Q9N623, A220S/I356L/K76T/N326D); assay: as above; assay type: cell-based
T2 sequence (Q9N623 whole entry A220S/I356L/K76T/N326D): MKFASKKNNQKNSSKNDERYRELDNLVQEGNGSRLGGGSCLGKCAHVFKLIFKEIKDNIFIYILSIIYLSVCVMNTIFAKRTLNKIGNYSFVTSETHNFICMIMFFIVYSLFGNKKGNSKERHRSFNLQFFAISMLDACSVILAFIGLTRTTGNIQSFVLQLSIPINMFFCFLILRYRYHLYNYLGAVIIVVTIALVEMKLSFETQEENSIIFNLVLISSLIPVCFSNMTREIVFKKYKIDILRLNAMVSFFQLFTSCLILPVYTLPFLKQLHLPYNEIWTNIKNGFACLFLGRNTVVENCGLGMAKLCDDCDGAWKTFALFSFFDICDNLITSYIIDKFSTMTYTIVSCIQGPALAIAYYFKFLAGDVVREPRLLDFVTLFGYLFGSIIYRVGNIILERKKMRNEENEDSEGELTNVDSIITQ
How it was run: as §1

PfCRT [4] = assay: Test of solutes as potential co-substrates for influx of VF-6 via PfCRT into the oocyte; assay type: cell-based, Plasmodium falciparum; parameters: key: X: Compounds that have been tested as potential co-substrates but are not required for influx of VF-6 via PfCRT into the oocyte; conditions: X = tested
non-expressing oocytes [5] = assay type: cell-based, Xenopus laevis; conditions: total [3H]CQ transport; for Uptake of [3H]CQ (% non-expressing oocyte control), trans-stimulation: non-expressing oocytes, normalised to the oocyte type control; for Uptake of [3H]CQ (% PfCRTDd2 control), trans-stimulation, non-expressing oocytes: mean ± SEM, SEM
How it was run: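 Oocytes (ten per treatment, ≥4 independent frogs/days) were preloaded by injecting VF-6 in 25 nL ND96 at pH 5.0, 5.5, 6.0 or 7.0, or Na^+-free choline buffer, then uptake run 1.5 h, 27.5 °C, ND96 pH 5.5 by default. Internal concentrations assumed ~400 nL oocyte volume.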

non-expressing oocytes [6] = assay: cells; assay type: cell-based, Xenopus laevis; conditions: Xenopus laevis, total [3H]CQ transport; for inhibition at 500 µM: [test solute] = 0.5 mM; for inhibition at 1000 µM: [test solute] = 1 mM; for inhibition at 2000 µM: [test solute] = 2 mM
How it was run: as §1

PfNT1 = target: T3, PfNT1 (Plasmodium falciparum, UniProt Q8IDM6); assay: cell-based; assay type: cell-based; conditions: for activity at 5000 µM: total [3H]CQ transport
T3 construct: expressed in transfected cells; host or cells: Xenopus laevis oocytes (stage V-VI), cRNA-injected
T3 sequence (Q8IDM6 whole entry): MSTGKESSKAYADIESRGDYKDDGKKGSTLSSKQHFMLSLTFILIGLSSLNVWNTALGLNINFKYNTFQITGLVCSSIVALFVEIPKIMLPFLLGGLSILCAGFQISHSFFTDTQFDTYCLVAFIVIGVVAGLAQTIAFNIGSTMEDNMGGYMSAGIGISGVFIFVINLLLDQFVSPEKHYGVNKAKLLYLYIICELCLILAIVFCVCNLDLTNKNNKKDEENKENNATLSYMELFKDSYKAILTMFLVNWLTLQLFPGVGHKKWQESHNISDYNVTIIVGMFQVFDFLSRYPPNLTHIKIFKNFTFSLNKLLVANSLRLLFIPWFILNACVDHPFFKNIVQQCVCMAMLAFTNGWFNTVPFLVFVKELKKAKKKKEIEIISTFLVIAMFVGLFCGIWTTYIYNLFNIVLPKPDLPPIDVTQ
How it was run: (§2)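 Transport measured in Xenopus oocytes expressing the transporters, 1.5 h at 27.5 °C in ND96 pH 5.5 unless noted. For trans-stimulation, VF-6 injected in 25 nL ND96 at pH 5.0–7.0 or Na^+-free (choline) buffer; intracellular levels based on ~400 nL oocyte volume. Ten oocytes per treatment, ≥4 experiments.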

PfCRT^Dd2 [7] = target: T1, PfCRT^Dd2; assay: cell-based; assay type: cell-based; conditions: […]; for activity at 45000 µM: [test solute]i = 45 mM (30 mM for some solutes due to solubility)
How it was run: as §2

PfCRT^Ecu1110 [8] = target: T2, PfCRT^Ecu1110; assay: cell-based; assay type: cell-based; conditions: […]
How it was run: as §2

PfCRT^3D7 [9] = target: T4, PfCRT^3D7 (Plasmodium falciparum, UniProt Q8IBZ9); assay: cell-based; assay type: cell-based
T4 sequence (Q8IBZ9 59-398): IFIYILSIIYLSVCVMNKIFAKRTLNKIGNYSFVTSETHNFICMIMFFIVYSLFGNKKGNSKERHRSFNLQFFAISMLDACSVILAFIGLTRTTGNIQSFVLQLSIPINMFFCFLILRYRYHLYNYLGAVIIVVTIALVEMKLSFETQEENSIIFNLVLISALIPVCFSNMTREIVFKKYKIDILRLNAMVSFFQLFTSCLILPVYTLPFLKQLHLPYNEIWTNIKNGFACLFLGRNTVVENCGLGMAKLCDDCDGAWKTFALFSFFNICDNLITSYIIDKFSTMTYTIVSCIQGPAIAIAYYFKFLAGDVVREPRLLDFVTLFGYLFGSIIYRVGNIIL
How it was run: as §2

PfCRT^3D7 [10] = target: T4, PfCRT^3D7; assay: cell-based; assay type: cell-based; conditions: total [3H]CQ transport; for inhibition at 500 µM: [test solute] = 0.5 mM; for inhibition at 1000 µM: [test solute] = 1 mM; for inhibition at 2000 µM: [test solute] = 2 mM
How it was run: as §1

[11] = read-out: PfCRT-mediated [3H]CQ transport, cis-inhibition (% PfCRTDd2 control)
[12] = read-out: Uptake of [3H]CQ (% PfCRTDd2 control), cis-inhibition, PfCRTDd2, SEM
[13] = read-out: PfCRT-mediated [3H]CQ transport, cis-inhibition (% PfCRTEcu1110 control)
[14] = read-out: Uptake of [3H]CQ (% PfCRTDd2 control), cis-inhibition, PfCRTEcu1110, SEM
[15] = read-out: Uptake of [3H]CQ (% PfCRTEcu1110 control), cis-inhibition
[16] = read-out: [3H]CQ transport (% PfCRTEcu1110 control), cis-inhibition, PfCRTEcu1110, SEM
[17] = Oocyte, mean ± SEM, SEM, read-out: Uptake of [3H]CQ (% PfCRTDd2 control), cis-inhibition, non-expressing oocytes
[18] = non-expressing oocytes, normalised to the oocyte type control, read-out: Uptake of [3H]CQ (% non-expressing oocyte control), cis-inhibition
[19] = PfCRT3D7 oocytes, normalised to the oocyte type control, read-out: Uptake of [3H]CQ (% PfCRT3D7 control), cis-inhibition
[20] = mean ± SEM, SEM, read-out: Uptake of [3H]CQ (% PfCRTDd2 control), cis-inhibition, PfCRT3D7

N[C@@H](CO)C(=O)O [L-serine]
Tested as potential co-substrate but not required for influx of VF-6 via PfCRT into the oocyte (PfCRT [1]): X
inhibition at 500 µM (PfCRT^Dd2 [2]; [11]): 99 ± 4.6%
inhibition at 2000 µM (PfCRT^Dd2 [2]; [11]): 94 ± 2.1%
inhibition at 500 µM (PfCRT^Dd2 [2]; [12]): 101 ± 3.3%
inhibition at 1000 µM (PfCRT^Dd2 [2]; [12]): 98 ± 2.6%
inhibition at 2000 µM (PfCRT^Dd2 [2]; [12]): 96 ± 3.5%
inhibition at 500 µM (PfCRT^Ecu1110 [3]; [13]): 97 ± 1.5%
inhibition at 1000 µM (PfCRT^Ecu1110 [3]; [13]): 97 ± 3.5%
inhibition at 2000 µM (PfCRT^Ecu1110 [3]; [13]): 98 ± 3.2%
inhibition at 500 µM (PfCRT^Ecu1110 [3]; [14]): 32 ± 1.9%
inhibition at 1000 µM (PfCRT^Ecu1110 [3]; [14]): 32 ± 2.1%
inhibition at 2000 µM (PfCRT^Ecu1110 [3]; [14]): 33 ± 1.8%
inhibition at 500 µM (PfCRT^Ecu1110 [3]; [15]): 101 ± 2.2%
inhibition at 1000 µM (PfCRT^Ecu1110 [3]; [15]): 101 ± 1.7%
inhibition at 2000 µM (PfCRT^Ecu1110 [3]; [15]): 100 ± 2.2%
inhibition at 500 µM (PfCRT^Ecu1110 [3]; [16]): 29 ± 1.7%
inhibition at 1000 µM (PfCRT^Ecu1110 [3]; [16]): 29 ± 1.1%
inhibition at 2000 µM (PfCRT^Ecu1110 [3]; [16]): 30 ± 0.6%
Tested as potential co-substrate but not required for influx of VF-6 via PfCRT into the oocyte (PfCRT [4]): X
Uptake of [3H]CQ (% non-expressing oocyte control), trans-stimulation (non-expressing oocytes [5]; [test solute]i = 5 mM): 100 ± 3.1 % non-expressing oocyte control
Uptake of [3H]CQ (% non-expressing oocyte control), trans-stimulation (non-expressing oocytes [5]; [test solute]i = 45 mM (30 mM for some solutes due to solubility)): 101 ± 2.8 % non-expressing oocyte control
Uptake of [3H]CQ (% PfCRTDd2 control), trans-stimulation, non-expressing oocytes (non-expressing oocytes [5]; [test solute]i = 5 mM (intracellular)): 2.8 ± 0.03 % PfCRTDd2 control
Uptake of [3H]CQ (% PfCRTDd2 control), trans-stimulation, non-expressing oocytes (non-expressing oocytes [5]; [test solute]i = 45 mM (intracellular; 30 mM for some solutes due to solubility)): 2.2 ± 0.01 % PfCRTDd2 control
inhibition at 500 µM (non-expressing oocytes [6]; [17]): 2.9 ± 0.06%
inhibition at 1000 µM (non-expressing oocytes [6]; [17]): 3.6 ± 0.09%
inhibition at 2000 µM (non-expressing oocytes [6]; [17]): 3.2 ± 0.1%
inhibition at 500 µM (non-expressing oocytes [6]; [18]): 100 ± 4.3%
inhibition at 1000 µM (non-expressing oocytes [6]; [18]): 99 ± 3.7%
inhibition at 2000 µM (non-expressing oocytes [6]; [18]): 99 ± 5.2%
activity at 5000 µM (PfNT1; PfNT1 oocytes, [test solute]i = 5 mM, normalised to the oocyte type control, read-out: Uptake of [3H]CQ (% PfNT1 control), trans-stimulation): 98 ± 2.6%
activity at 45000 µM (PfNT1; SEM, read-out: Uptake of [3H]CQ (% PfCRTDd2 control), trans-stimulation, PfNT1): 2.3 ± 0.06%
activity at 45000 µM (PfNT1; read-out: Uptake of [3H]CQ (% PfNT1 control), trans-stimulation): 98 ± 2.6%
activity at 5000 µM (PfNT1; [test solute]i = 5 mM (intracellular), mean ± SEM, SEM, read-out: Uptake of [3H]CQ (% PfCRTDd2 control), trans-stimulation, PfNT1): 3 ± 0.02%
activity at 5000 µM (PfCRT^Dd2 [7]; pH 5.5, read-out: PfCRT-mediated [3H]CQ transport, trans-stimulation (% PfCRTDd2 control), [test solute]i = 5 mM (intracellular), PfCRTDd2 oocytes, normalised to oocyte type control): 97 ± 4.4%
activity at 5000 µM (PfCRT^Dd2 [7]; pH 5.5, read-out: Uptake of [3H]CQ (% PfCRTDd2 control), trans-stimulation, PfCRTDd2, total [3H]CQ transport, [test solute]i = 5 mM (intracellular), mean ± SEM, SEM): 99 ± 3.2%
activity at 5000 µM (PfCRT^Dd2 [7]; pH 5.5, read-out: Uptake of [3H]CQ (% PfCRTDd2 control), trans-stimulation, PfCRTDd2 oocytes, [test solute]i = 5 mM, total [3H]CQ transport, normalised to the oocyte type control): 99 ± 3.2%
activity at 45000 µM (PfCRT^Dd2 [7]; pH 5.5, read-out: Uptake of [3H]CQ (% PfCRTDd2 control), trans-stimulation, PfCRTDd2 oocytes, total [3H]CQ transport, normalised to the oocyte type control): 100 ± 2.9%
activity at 5000 µM (PfCRT^Dd2 [7]; pH 5.5, read-out: [3H]CQ transport (% PfCRTDd2 control), trans-stimulation, PfCRTDd2, trans-stimulation, [test solute]i = 5 mM (injected), PfCRT-mediated component (background subtracted), mean ± SEM, SEM): 97 ± 4.4%
activity at 45000 µM (PfCRT^Dd2 [7]; pH 5.5, read-out: [3H]CQ transport (% PfCRTDd2 control), trans-stimulation, PfCRTDd2, trans-stimulation, PfCRT-mediated component (background subtracted), mean ± SEM, SEM): 98 ± 3.6%
activity at 5000 µM (PfCRT^Ecu1110 [8]; pH 5.5, read-out: PfCRT-mediated [3H]CQ transport, trans-stimulation (% PfCRTEcu1110 control), [test solute]i = 5 mM (intracellular), PfCRTEcu1110 oocytes, normalised to oocyte type control): 98 ± 3.1%
activity at 5000 µM (PfCRT^Ecu1110 [8]; pH 5.5, read-out: Uptake of [3H]CQ (% PfCRTEcu1110 control), trans-stimulation, PfCRTEcu1110 oocytes, [test solute]i = 5 mM, total [3H]CQ transport, normalised to the oocyte type control): 100 ± 2.5%
activity at 45000 µM (PfCRT^Ecu1110 [8]; pH 5.5, read-out: Uptake of [3H]CQ (% PfCRTEcu1110 control), trans-stimulation, PfCRTEcu1110 oocytes, [test solute]i = 45 mM (30 mM for some solutes due to solubility), total [3H]CQ transport, normalised to the oocyte type control): 98 ± 3.1%
activity at 5000 µM (PfCRT^Ecu1110 [8]; read-out: Uptake of [3H]CQ (% PfCRTDd2 control), trans-stimulation, PfCRTEcu1110, total [3H]CQ transport, [test solute]i = 5 mM (intracellular), mean ± SEM, SEM): 36 ± 1.7%
activity at 45000 µM (PfCRT^Ecu1110 [8]; read-out: Uptake of [3H]CQ (% PfCRTDd2 control), trans-stimulation, PfCRTEcu1110, total [3H]CQ transport, [test solute]i = 45 mM (intracellular; 30 mM for some solutes due to solubility), mean ± SEM, SEM): 35 ± 1.6%
activity at 5000 µM (PfCRT^3D7 [9]; PfCRT3D7 oocytes, [test solute]i = 5 mM, total [3H]CQ transport, normalised to the oocyte type control, read-out: Uptake of [3H]CQ (% PfCRT3D7 control), trans-stimulation): 100 ± 3.6%
[3H]CQ transport (% PfCRT3D7 control), trans-stimulation, PfCRT3D7 (PfCRT^3D7 [9]; SEM): 0.3 ± 0.01 % PfCRT3D7 control
activity at 5000 µM (PfCRT^3D7 [9]; [test solute]i = 5 mM (intracellular), PfCRT3D7 oocytes, normalised to oocyte type control, read-out: PfCRT-mediated [3H]CQ transport, trans-stimulation (% PfCRT3D7 control)): 98 ± 4.1%
activity at 45000 µM (PfCRT^3D7 [9]; SEM, read-out: Uptake of [3H]CQ (% PfCRTDd2 control), trans-stimulation, PfCRT3D7): 3.3 ± 0.06%
activity at 45000 µM (PfCRT^3D7 [9]; read-out: PfCRT-mediated [3H]CQ transport, trans-stimulation (% PfCRT3D7 control)): 97 ± 4.5%
activity at 45000 µM (PfCRT^3D7 [9]; read-out: Uptake of [3H]CQ (% PfCRT3D7 control), trans-stimulation): 99 ± 3.7%
activity at 5000 µM (PfCRT^3D7 [9]; total [3H]CQ transport, [test solute]i = 5 mM (intracellular), mean ± SEM, SEM, read-out: Uptake of [3H]CQ (% PfCRTDd2 control), trans-stimulation, PfCRT3D7): 3.3 ± 0.06%
inhibition at 500 µM (PfCRT^3D7 [10]; [19]): 98 ± 3.1%
inhibition at 1000 µM (PfCRT^3D7 [10]; [19]): 100 ± 3.6%
inhibition at 2000 µM (PfCRT^3D7 [10]; [19]): 98 ± 3.6%
inhibition at 500 µM (PfCRT^3D7 [10]; [20]): 3.1 ± 0.06%
inhibition at 1000 µM (PfCRT^3D7 [10]; [20]): 2.2 ± 0.03%
inhibition at 2000 µM (PfCRT^3D7 [10]; [20]): 2.6 ± 0.08%
